Assay results from ChEMBL document CHEMBL1138190, “Synthesis and antibacterial activity of novel C12 vinyl ketolides” (J Med Chem, 2006).
Activity calls are given as the source filed them.

What was measured:
Streptococcus pneumoniae [1] = assay: Antibacterial activity against Streptococcus pneumoniae Erm 7985; assay type: functional
Streptococcus pneumoniae [2] = assay: Antibacterial activity against Streptococcus pneumoniae Erm 8339; assay type: functional
Streptococcus pneumoniae [3] = assay: Antibacterial activity against Streptococcus pneumoniae Erm 8919; assay type: functional
Streptococcus pneumoniae [4] = assay: Antibacterial activity against Streptococcus pneumoniae Erm S 4085; assay type: functional
Streptococcus pneumoniae [5] = assay: Antibacterial activity against Streptococcus pneumoniae Erm 3120; assay type: functional
Streptococcus pneumoniae [6] = assay: Antibacterial activity against Streptococcus pneumoniae Erm 2218; assay type: functional
[7] = Lung-to-plasma AUC ratio in Sprague-Dawley rat at 5 mg/kg, iv; assay type: ADME, organism-based; parameters: dose 5 mg/kg, route intravenous; conditions: lung and plasma
[8] = Oral bioavailability in Sprague-Dawley rat at 15 mg/kg, po; assay type: ADME, organism-based; conditions: in vivo
Streptococcus pneumoniae [9] = assay: Antibacterial activity against Streptococcus pneumoniae 280-962; assay type: functional
Streptococcus pneumoniae [10] = assay: Antibacterial activity against Streptococcus pneumoniae Mef 9959; assay type: functional
Staphylococcus aureus [11] = assay: Antibacterial activity against Staphylococcus aureus 33591; assay type: functional
Streptococcus pneumoniae [12] = assay: Antibacterial activity against Streptococcus pneumoniae Erm 867; assay type: functional
Streptococcus pneumoniae [13] = assay: Antibacterial activity against Streptococcus pneumoniae Mef 10095; assay type: functional
Rattus norvegicus [14] = assay: Efficacy against Haemophilus influenzae in Sprague-Dawley rat lung infection model at 100 mg/kg; assay type: functional, organism-based; parameters: dose 100 mg/kg
Streptococcus pneumoniae [15] = assay: Antibacterial activity against Streptococcus pneumoniae Erm S 4297; assay type: functional
Streptococcus pneumoniae [16] = assay: Antibacterial activity against Streptococcus pneumoniae Mef 5649; assay type: functional
Streptococcus pneumoniae [17] = assay: Antibacterial activity against Streptococcus pneumoniae Mef 3449; assay type: functional
Haemophilus influenzae [18] = assay: Antibacterial activity against Haemophilus influenzae 49247; assay type: functional
[19] = Plasma half life in Sprague-Dawley rat at 5 mg/kg, iv; assay type: ADME, organism-based; parameters: dose 5 mg/kg, route intravenous
Streptococcus pneumoniae [20] = assay: Antibacterial activity against Streptococcus pneumoniae Mef 1566; assay type: functional
Streptococcus pneumoniae [21] = assay: Antibacterial activity against Streptococcus pneumoniae Mef 2880; assay type: functional
Streptococcus pneumoniae [22] = assay: Antibacterial activity against Streptococcus pneumoniae Erm 6388; assay type: functional
Streptococcus pneumoniae [23] = assay: Antibacterial activity against Streptococcus pneumoniae Erm 6849; assay type: functional
Streptococcus pneumoniae [24] = assay: Antibacterial activity against Streptococcus pneumoniae Mef 4126; assay type: functional
Streptococcus pneumoniae [25] = assay: Antibacterial activity against Streptococcus pneumoniae Mef 1556; assay type: functional
Rattus norvegicus [26] = assay: Plasma AUC in Sprague-Dawley rat at 5 mg/kg, iv; assay type: ADME, organism-based; parameters: dose 5 mg/kg, route intravenous; conditions: in vivo
Streptococcus pneumoniae [27] = assay: Antibacterial activity against Streptococcus pneumoniae Mef S 3427; assay type: functional
Streptococcus pneumoniae [28] = assay: Antibacterial activity against Streptococcus pneumoniae Erm 4589; assay type: functional
Streptococcus pneumoniae [29] = assay: Antibacterial activity against Streptococcus pneumoniae Erm 6396; assay type: functional
Streptococcus pneumoniae [30] = assay: Antibacterial activity against Streptococcus pneumoniae Erm 4290; assay type: functional
Streptococcus pneumoniae [31] = assay: Antibacterial activity against Streptococcus pneumoniae Mef 983; assay type: functional
Streptococcus pneumoniae [32] = assay: Antibacterial activity against Streptococcus pneumoniae 297-749; assay type: functional
Streptococcus pneumoniae [33] = assay: Antibacterial activity against Streptococcus pneumoniae Erm 5399; assay type: functional
Streptococcus pneumoniae [34] = assay: Antibacterial activity against Streptococcus pneumoniae Erm 5554; assay type: functional
Streptococcus pneumoniae [35] = assay: Antibacterial activity against Streptococcus pneumoniae Mef 2382; assay type: functional
[36] = test system: Staphylococcus epidermidis; assay: Antibacterial activity against Staphylococcus epidermidis f50654; assay type: functional
Streptococcus pneumoniae [37] = assay: Antibacterial activity against Streptococcus pneumoniae Mef S 3435; assay type: functional; conditions: Streptococcus pneumoniae; read-out: MIC
Enterococcus faecalis [38] = assay: Antibacterial activity against Enterococcus faecalis bc11148-2; assay type: functional
Streptococcus pneumoniae [39] = assay: Antibacterial activity against Streptococcus pneumoniae Erm 8947; assay type: functional
Streptococcus pneumoniae [40] = assay: Antibacterial activity against Streptococcus pneumoniae Mef 6966; assay type: functional
Streptococcus pneumoniae [41] = assay: Antibacterial activity against Streptococcus pneumoniae 49619; assay type: functional
Staphylococcus aureus [42] = assay: Antibacterial activity against Staphylococcus aureus 29213; assay type: functional
Streptococcus pneumoniae [43] = assay: Antibacterial activity against Streptococcus pneumoniae Mef 4331; assay type: functional
Streptococcus pneumoniae [44] = assay: Antibacterial activity against Streptococcus pneumoniae Erm 10279; assay type: functional
[45] = Lung half life in Sprague-Dawley rat at 15 mg/kg, po; assay type: ADME, organism-based; parameters: dose 15 mg/kg, route oral
Streptococcus pneumoniae [46] = assay: Antibacterial activity against Streptococcus pneumoniae Mef 1790; assay type: functional
[47] = Volume of distribution in Sprague-Dawley rat at 5 mg/kg, iv and 15 mg/kg, po; assay type: ADME, organism-based; conditions: in vivo, read-out: Vdss
[48] = Plasma half life in Sprague-Dawley rat at 15 mg/kg, po; assay type: ADME, organism-based; parameters: dose 15 mg/kg, route oral
Streptococcus pneumoniae [49] = assay: Antibacterial activity against Streptococcus pneumoniae Mef 3855; assay type: functional
Streptococcus pneumoniae [50] = assay: Antibacterial activity against Streptococcus pneumoniae Erm 8257; assay type: functional
Streptococcus pneumoniae [51] = assay: Antibacterial activity against Streptococcus pneumoniae Mef 953; assay type: functional
Streptococcus pneumoniae [52] = assay: Antibacterial activity against Streptococcus pneumoniae Erm 5590; assay type: functional
Rattus norvegicus [53] = assay: Efficacy against Streptococcus pneumoniae Mef in Sprague-Dawley rat lung infection model at 50 mg/kg; assay type: functional, organism-based; parameters: dose 50 mg/kg
Streptococcus pyogenes = assay: Antibacterial activity against Streptococcus pyogenes 8668; assay type: functional
Enterococcus faecalis [54] = assay: Antibacterial activity against Enterococcus faecalis 29212; assay type: functional
Haemophilus influenzae [55] = assay: Antibacterial activity against Haemophilus influenzae 2762; assay type: functional
Streptococcus pneumoniae [56] = assay: Antibacterial activity against Streptococcus pneumoniae Mef 9142; assay type: functional
[57] = test system: Staphylococcus epidermidis; assay: Antibacterial activity against Staphylococcus epidermidis 14990; assay type: functional
Streptococcus pneumoniae [58] = assay: Antibacterial activity against Streptococcus pneumoniae Erm 5354; assay type: functional
Streptococcus pneumoniae [59] = assay: Antibacterial activity against Streptococcus pneumoniae Mef 41; assay type: functional
Streptococcus pneumoniae [60] = assay: Antibacterial activity against Streptococcus pneumoniae Mef 5654; assay type: functional
[61] = Oral bioavailability in Sprague-Dawley rat at 100 mg/kg, po; assay type: ADME, organism-based; conditions: in vivo
Rattus norvegicus [62] = assay: Efficacy against Streptococcus pneumoniae Erm in Sprague-Dawley rat lung infection model at 100 mg/kg; assay type: functional, organism-based; parameters: dose 100 mg/kg
Streptococcus pneumoniae [63] = assay: Antibacterial activity against Streptococcus pneumoniae Erm 5415; assay type: functional

C=C[C@]12OC(=O)N(CCCCn3cnc(-c4ccc(Cl)nc4)c3)[C@@H]1[C@@H](C)C(=O)[C@H](C)C[C@@](C)(OC)[C@H](O[C@@H]1O[C@H](C)C[C@H](N(C)C)[C@H]1O)[C@@H](C)C(=O)[C@@H](C)C(=O)O[C@@H]2CC
12 L/kg: Vd [47]
≤ 0.013 µg/mL: MIC (Streptococcus pneumoniae [1]) | MIC (Streptococcus pneumoniae [4]) | MIC (Streptococcus pneumoniae [50])
active: Activity (Rattus norvegicus [14]) | Activity (Rattus norvegicus [53]) | Activity (Rattus norvegicus [62])
1.4 h: half-life [45]
1.7 h: half-life [48]
1.3 h: half-life [19]
3.13 µg/mL: MIC (Haemophilus influenzae [18])
≤ 0.05 µg/mL: MIC (Streptococcus pneumoniae [9]) | MIC (Streptococcus pneumoniae [10]) | MIC (Streptococcus pneumoniae [13]) | MIC (Streptococcus pneumoniae [16]) | MIC (Streptococcus pneumoniae [17]) | MIC (Streptococcus pneumoniae [21]) | MIC (Streptococcus pneumoniae [24]) | MIC (Streptococcus pneumoniae [25]) | MIC (Streptococcus pneumoniae [27]) | MIC (Streptococcus pneumoniae [32]) | MIC [36] | MIC (Streptococcus pneumoniae [37]) | MIC (Streptococcus pneumoniae [40]) | MIC (Streptococcus pneumoniae [41]) | MIC (Staphylococcus aureus [42]) | MIC (Streptococcus pneumoniae [49]) | MIC (Streptococcus pneumoniae [51]) | MIC (Streptococcus pyogenes) | MIC (Enterococcus faecalis [54]) | MIC [57]
0.1 µg/mL: MIC (Streptococcus pneumoniae [20]) | MIC (Streptococcus pneumoniae [31]) | MIC (Streptococcus pneumoniae [34]) | MIC (Streptococcus pneumoniae [35]) | MIC (Enterococcus faecalis [38]) | MIC (Streptococcus pneumoniae [43]) | MIC (Streptococcus pneumoniae [46]) | MIC (Streptococcus pneumoniae [56]) | MIC (Streptococcus pneumoniae [59]) | MIC (Streptococcus pneumoniae [60])
0.78 µg/mL: MIC (Haemophilus influenzae [55])
2300 ng·h/mL: AUC (Rattus norvegicus [26])
0.05 µg/mL: MIC (Streptococcus pneumoniae [5]) | MIC (Streptococcus pneumoniae [23]) | MIC (Streptococcus pneumoniae [29]) | MIC (Streptococcus pneumoniae [39])
> 50 µg/mL: MIC (Staphylococcus aureus [11])
0.2 µg/mL: MIC (Streptococcus pneumoniae [2])
94: Kp [7]
0.025 µg/mL: MIC (Streptococcus pneumoniae [3]) | MIC (Streptococcus pneumoniae [6]) | MIC (Streptococcus pneumoniae [12]) | MIC (Streptococcus pneumoniae [15]) | MIC (Streptococcus pneumoniae [28]) | MIC (Streptococcus pneumoniae [30]) | MIC (Streptococcus pneumoniae [33]) | MIC (Streptococcus pneumoniae [44]) | MIC (Streptococcus pneumoniae [52]) | MIC (Streptococcus pneumoniae [58]) | MIC (Streptococcus pneumoniae [63])
0.4 µg/mL: MIC (Streptococcus pneumoniae [22])
26%: bioavailability [8]
91%: bioavailability [61]
